According to the NIST ThermoML archive (doi:10.1021/je501133u):
± gives the expanded uncertainty stated by the source.

Experiments:
[1] = 100 kPa, Liquid; for viscosity: Falling or rolling sphere viscometry; for mass density: Vibrating tube method
[2] = xn = mol fraction of the nth substance listed; conditions: 100 kPa, Liquid, x1 = 1; for viscosity: Falling or rolling sphere viscometry; for mass density: Vibrating tube method

CCO [ethanol]
[1]
Conditions	mass density [kg/m3]	viscosity [mPa·s]
293.15 K	790.1 ± 0.2	1.15 ± 0.02
298.15 K	785.9 ± 0.2	1.07 ± 0.02
303.15 K	781.6 ± 0.2	0.97 ± 0.02
308.15 K	777.2 ± 0.2	0.89 ± 0.02
313.15 K	772.9 ± 0.2	0.81 ± 0.02
318.15 K	768.4 ± 0.2	0.76 ± 0.02
323.15 K	764 ± 0.2	0.68 ± 0.02
328.15 K	759.4 ± 0.2	0.63 ± 0.02

CCO [ethanol] + CCCCCCCO
[2]
Conditions	mass density [kg/m3]	viscosity [mPa·s]
293.15 K	790.1 ± 0.2	1.15 ± 0.02
298.15 K	785.9 ± 0.2	1.07 ± 0.02
303.15 K	781.6 ± 0.2	0.97 ± 0.02
308.15 K	777.2 ± 0.2	0.89 ± 0.02
313.15 K	772.9 ± 0.2	0.81 ± 0.02
318.15 K	768.4 ± 0.2	0.76 ± 0.02
323.15 K	764 ± 0.2	0.68 ± 0.02
328.15 K	759.4 ± 0.2	0.63 ± 0.02

CCO [ethanol] + CCCCCCO
[2]
Conditions	mass density [kg/m3]	viscosity [mPa·s]
293.15 K	790.1 ± 0.2	1.15 ± 0.02
298.15 K	785.9 ± 0.2	1.07 ± 0.02
303.15 K	781.6 ± 0.2	0.97 ± 0.02
308.15 K	777.2 ± 0.2	0.89 ± 0.02
313.15 K	772.9 ± 0.2	0.81 ± 0.02
318.15 K	768.4 ± 0.2	0.76 ± 0.02
323.15 K	764 ± 0.2	0.68 ± 0.02
328.15 K	759.4 ± 0.2	0.63 ± 0.02

CCCCCCCO [heptan-1-ol]
[1]
Conditions	mass density [kg/m3]	viscosity [mPa·s]
293.15 K	822.3 ± 0.3	7.15 ± 0.07
298.15 K	818.8 ± 0.3	6.07 ± 0.06
303.15 K	815.3 ± 0.3	5.18 ± 0.05
308.15 K	811.8 ± 0.3	4.44 ± 0.04
313.15 K	808.2 ± 0.3	3.83 ± 0.04
318.15 K	804.6 ± 0.3	3.33 ± 0.04
323.15 K	801 ± 0.3	2.89 ± 0.03
328.15 K	797.4 ± 0.3	2.54 ± 0.03

CCCCCCO [hexan-1-ol]
[1]
Conditions	mass density [kg/m3]	viscosity [mPa·s]
293.15 K	818.9 ± 0.3	5.35 ± 0.05
298.15 K	815.3 ± 0.3	4.56 ± 0.04
303.15 K	811.7 ± 0.3	3.9 ± 0.04
308.15 K	808.1 ± 0.3	3.36 ± 0.04
313.15 K	804.5 ± 0.3	2.91 ± 0.03
318.15 K	800.8 ± 0.3	2.54 ± 0.03
323.15 K	797.1 ± 0.3	2.23 ± 0.03
328.15 K	793.4 ± 0.3	1.97 ± 0.03
